Reference: patent US20240366624A1, “METHODS AND COMPOSITIONS FOR TREATING THROMBOTIC DISEASE” (Washington University, priority 2023, published 2024)
“Also recorded” adds a separate entry of the source.

Assays:
[1] = tested on: platelets; settings: 10 to 33 μM, recent study; cited from earlier work
[2] = target: T1, MAO-A (monoamine oxidase A) (Homo sapiens, UniProt P21397); settings: from studies; cited from earlier work
T1 sequence (P21397 1-527): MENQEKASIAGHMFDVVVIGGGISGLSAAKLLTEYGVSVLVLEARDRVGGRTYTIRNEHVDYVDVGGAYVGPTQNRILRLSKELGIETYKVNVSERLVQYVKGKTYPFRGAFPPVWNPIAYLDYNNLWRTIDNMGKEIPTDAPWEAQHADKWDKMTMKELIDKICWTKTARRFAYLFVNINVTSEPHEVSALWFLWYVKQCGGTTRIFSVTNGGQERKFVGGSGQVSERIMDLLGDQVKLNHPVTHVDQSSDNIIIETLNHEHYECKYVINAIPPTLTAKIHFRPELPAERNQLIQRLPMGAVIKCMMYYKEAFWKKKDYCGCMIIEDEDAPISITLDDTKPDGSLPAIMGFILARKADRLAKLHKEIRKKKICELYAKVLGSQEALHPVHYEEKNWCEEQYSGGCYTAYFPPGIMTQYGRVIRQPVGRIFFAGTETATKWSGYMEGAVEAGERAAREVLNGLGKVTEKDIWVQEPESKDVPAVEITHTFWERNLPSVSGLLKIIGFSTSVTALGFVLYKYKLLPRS

[3] = tested on: human platelets; assay: Platelet aggregation, human platelets; format: cell-based; settings: 3 to 10 μM
Experimental: FIG. 9(A-C) is an exemplary embodiment of EN460 inhibiting thrombin-induced aggregation of mouse and human platelets in accordance with the present disclosure. (A) Human (FIG. 9A), WT (FIG. 9B), and Ero1α-null (FIG. 9C) platelets were pretreated with EN460, an ERO1α inhibitor, at 1, 3, or 10 μM, and treated with 0.025 U/ml thrombin to induce platelet aggregation. The data represent the mean±SD (n=3). P values determined by ANOVA and Dunnett's test (FIG. 9(A-B)) or Student's t-test (FIG. 9C).
FIG. 10(A-E) is an exemplary embodiment of 15E9 not affecting platelet activation and aggregation in accordance with the present disclosure. Mouse platelets were treated with 0.02-0.03 (FIG. 10A P-selectin, FIG. 10B aIIbβ3) or 0.025 U/ml thrombin (FIG. 10C) in the presence of 10 μg/ml mouse IgG2a (IgG2a) or a blocking anti-ERO1α antibody (15E9). Flow cytometry (FIG. 10(A-B)) and aggregation (FIG. 10C) assays were performed. FIG. 10D: Human platelets were treated with 0.025 U/ml thrombin in the presence of mouse IgG2a (mIgG2a) or 10 μg/ml 15E9 and 16B6, followed by measuring aggregation. FIG. 10E: WT and Ero1α null platelets were treated with 10 μg/ml mouse IgG1 (mIgG1) or a blocking anti-PDI antibody (BD34), followed by measuring aggregation induced by 0.025 U/ml thrombin. The data represent the mean±SD (n=3). P values determined by unpaired Student's t-test (vs. mIgG1).

[4] = target: T1, MAO-A (monoamine oxidase A); assay: MAO-A activity assay; format: biochemical
[5] = thiol-reacting (GSH) activity assay; format: biochemical
Source text: FIG. 17(A-F) is an exemplary embodiment of identification of novel ERO1α inhibitors by high throughput screening in accordance with the present disclosure. FIG. 17A: A scheme of an ERO1α activity assay. FIG. 17B: Screening of chemical libraries in the ERO1α activity assay. FIG. 17C: The inhibitory effect of selected compounds on ERO1α activity. FIG. 17D: The inhibitory effect of selected compounds on PDI activity. FIG. 17E: The inhibitory effect of selected compounds on H2O2 activity. FIG. 17F: The inhibitory effect of selected compounds on thiol-reacting activity. The data represent the mean±SD (n=3). *P<0.05, **P<0.01, ***P<0.001, and ****P<0.0001 vs. vehicle control, Student's t-test.
To identify a novel ERO1α inhibitor, 5800 compounds were screened using an ERO1α activity assay (FIG. 17A and FIG. 17B). […] The selected compounds were further tested in assays measuring PDI, antioxidant, and thiol-reacting activities (FIG. 17D through FIG. 17F). […] B12 inhibited P-selectin exposure and αIIbβ3 activation in agonist-activated mouse and human platelets in a concentration-dependent manner (FIG. 18B through FIG. 18E).

[6] = tested on: platelets; assay: Platelet activation and aggregation, platelet source not stated; format: cell-based; settings: 5-10 microM
Source text: As described herein, small molecule ERO1α inhibitors were identified by performing a high throughput screen using a ChemDiv library. […] Furthermore, intravenous injection of B112-5 reduced the infarct volume in a mouse model of ischemic stroke.

[7] = tested on: human platelets; assay: Ca2+ mobilization (FLIPR), human platelets; format: cell-based; settings: thrombin or A23187
Experimental: Ca^2+ mobilization was measured as described previously. WT control and Ero1α-null platelets (1×10^8/mL) were suspended in HEPES-Tyrode buffer, pH 7.4. Cells were incubated with a Ca^2+ dye (FLIPR Ca^2+5 assay kit; Molecular Devices) for 30 minutes at 37° C. in the dark, followed by stimulation with thrombin (0.1 U/mL), A23187 (2 μM) or thapsigargin (10-20 μM). After measuring Ca^2+ release, 1 mM CaCl2) was immediately added to assess Ca^2+ influx. In other experiments, Ca^2+ dye-labeled human and WT mouse platelets were incubated with a vehicle or an inhibitor for 10 minutes at 37° C. Cytosolic Ca^2+ levels were measured using a FlexStation3 microplate reader with an excitation wavelength of 485 nm and an emission wavelength of 525 nm. Ca^2+ mobilization was quantified by the area under the curve and expressed as a relative fluorescence unit.

SMILES	thrombin-induced platelet aggregation [1]	IC50 [2]	thrombin-induced aggregation [3]	effect on MAO-A activity ([4]; 10 μM)	inhibition of MAO-A activity ([4]; 30 μM)	MAO-A inhibition at 100 μM (%) ([4]; 100 μM)	GSH inhibition at 100 μM (%) ([5]; 100 μM)	effect on thiol-reacting activity ([5]; at or up to 100 μM)	platelet activation and aggregation [6]	Ca2+ release and influx [7]
O=C(O)c1cc(N2N=C(C(F)(F)F)/C(=C/c3ccc(-c4ccccc4)o3)C2=O)ccc1Cl [EN460]	significantly blocks	7.9 µM	abrogated							
O=C(CSc1nc(O)cc(O)n1)N1c2ccccc2Sc2ccccc21 [B12-5]				without affecting	30%	50.7 ± 9%	9.7 ± 2%	minimal effect; also recorded: did not affect	significantly inhibited	dose dependently inhibited
